Values after ≈ are worked out from the molar mass of the structure shown.
Legend:
Assay type in all cases: cell-based
[1] = test system: Methicillin-resistant Staphylococcus aureus; test: MIC, micro-dilution in culture broth (CLSI M 7-A5), vaginally isolated strains
Candida albicans = test: MIC, microdilution in broth (CLSI M27-A), vaginally isolated strains
Gardnerella vaginalis = test: MIC, broth dilution (CLSI M11-A4), vaginally isolated strains
Trichomonas vaginalis = test: MIC on Diamond's medium, loss of motility, vaginally isolated strains

MIC ([1]; S. aureus Met R 1): >1333 µg/mL
MIC ([1]; S. aureus Met R 2): >1333 µg/mL
MIC ([1]; S. aureus Met R 3): 1333 µg/mL (≈ 2830 µM)
MIC ([1]; S. aureus Met R 4): 1333 µg/mL (≈ 2830 µM)
MIC ([1]; S. aureus Met R 5): >1333 µg/mL
MIC (Candida albicans; Candida albicans 1): 667 µg/mL (≈ 1420 µM)
MIC (Candida albicans; Candida albicans 2): 667 µg/mL (≈ 1420 µM)
MIC (Candida albicans; Candida albicans 3): 667 µg/mL (≈ 1420 µM)
MIC (Candida albicans; Candida albicans 4): 667 µg/mL (≈ 1420 µM)
MIC (Candida albicans; Candida albicans 5): 333 µg/mL (≈ 707 µM)
MIC (Gardnerella vaginalis; Gardnerella vaginalis 1): 667 µg/mL (≈ 1420 µM)
MIC (Gardnerella vaginalis; Gardnerella vaginalis 2): 667 µg/mL (≈ 1420 µM)
MIC (Gardnerella vaginalis; Gardnerella vaginalis 3): 333 µg/mL (≈ 707 µM)
MIC (Gardnerella vaginalis; Gardnerella vaginalis 4): 167 µg/mL (≈ 355 µM)
MIC (Gardnerella vaginalis; Gardnerella vaginalis 5): 667 µg/mL (≈ 1420 µM)
MIC (Gardnerella vaginalis; Gardnerella vaginalis 6): 667 µg/mL (≈ 1420 µM)
MIC (Gardnerella vaginalis; Gardnerella vaginalis 7): 167 µg/mL (≈ 355 µM)
MIC (Gardnerella vaginalis; Gardnerella vaginalis 8): 333 µg/mL (≈ 707 µM)
MIC (Gardnerella vaginalis; Gardnerella vaginalis 9): 333 µg/mL (≈ 707 µM)
MIC (Gardnerella vaginalis; Gardnerella vaginalis 10): 167 µg/mL (≈ 355 µM)
MIC (Trichomonas vaginalis; Trichomonas vaginalis 1): 150 µg/mL (≈ 319 µM)
MIC (Trichomonas vaginalis; Trichomonas vaginalis 2): 150 µg/mL (≈ 319 µM)
MIC (Trichomonas vaginalis; Trichomonas vaginalis 3): 150 µg/mL (≈ 319 µM)
MIC (Trichomonas vaginalis; Trichomonas vaginalis 4): 150 µg/mL (≈ 319 µM)
SMILES: CC1(C)[C@@H](O)CC[C@]2(C)[C@H]3C(=O)C=C4[C@@H]5C[C@@](C)(C(=O)O)CC[C@]5(C)CC[C@@]4(C)[C@]3(C)CC[C@@H]12 [18-beta-glycyrrhetic acid, 18β-glycyrrhetic acid]

— patent publication US20130108717A1, “COMPOSITIONS FOR THE TREATMENT OF GYNAECOLOGICAL DISORDERS” (INDENA S.P.A., priority 2010, published 2013)
